Source: patent publication US8497245B2, “Trypsin-like serine protease inhibitors, their preparation and use as selective inhibitors of the clotting factors IIa and Xa” (The Medicines Company (Leipzig) GmbH, priority 2010, dated 2013)
Structures can show the parent of a compound that is named as a salt. Where two headings read alike, the source gives them in different places.

Legend:
Type in all cases: biochemical
[1] = target: T1, human factor IIa (human alpha-thrombin) (Homo sapiens, UniProt P00734); experiment: Inhibition constants for human factor IIa, chromogenic substrate assay; conditions: 25° C., Pefachrome tPA substrate, average of at least three determinations; read-out: Ki h FIIa
T1 construct: human alpha-thrombin from Enzyme Research Laboratories; purchased Enzyme Research Laboratories
Description: (§1) The inhibitory effect against the individual purified enzymes was determined in analogy to a previously disclosed method (Stürzebecher et al., J. Med. Chem., 40, 3091-3099 (1997)).
(§2) 200 μL of TBS (0.05 M trishydroxymethylaminomethane; 0.154 M NaCl, 2% ethanol, pH 8.0)
(§3) The release of p-nitroaniline (p-NA, the chromogenic product of the proteolytic activity), was determined by change in absorbance at 405 nm. The equilibrium rates were used to calculate the inhibitor/enzyme dissociation constant (Ki values) by parameter fitting in accordance with the rate equation for competitive inhibition using GraFit (version 4 from Erithacus). The results are reported as Ki values (nanomolar) in table 7 and are the average of at least three determinations.

[2] = target: T2, human Factor Xa (Homo sapiens, UniProt P00742); experiment: Inhibition constants for human factor Xa, chromogenic substrate assay; conditions: 25° C., Pefachrome FXa substrate, average of at least three determinations; read-out: Ki h FXa
T2 construct: human Factor Xa from Enzyme Research Laboratories; purchased Enzyme Research Laboratories
T2 sequence (P00742 235-488 limits assumed): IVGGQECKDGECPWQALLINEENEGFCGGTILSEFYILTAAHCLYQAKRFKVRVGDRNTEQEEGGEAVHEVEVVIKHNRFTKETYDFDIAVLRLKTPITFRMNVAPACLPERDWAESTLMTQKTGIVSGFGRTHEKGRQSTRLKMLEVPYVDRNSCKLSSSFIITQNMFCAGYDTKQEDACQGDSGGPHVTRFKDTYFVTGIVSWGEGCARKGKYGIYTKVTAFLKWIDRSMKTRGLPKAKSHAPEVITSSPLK
T2 sequence (P00742 41-179 partner limits assumed): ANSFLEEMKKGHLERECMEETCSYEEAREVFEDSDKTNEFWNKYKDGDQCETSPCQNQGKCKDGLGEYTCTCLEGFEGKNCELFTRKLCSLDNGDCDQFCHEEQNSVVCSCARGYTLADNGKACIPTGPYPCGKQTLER
Description: as §1, §2, §3

[3] = target: T3, Human Activated Protein C (h aPC) (Homo sapiens, UniProt P04070); experiment: Inhibition of human activated protein C (reference enzyme); conditions: Pefachrome PCa substrate
T3 construct: purchased Enzyme Research Laboratories
T3 sequence (P04070 212-450 limits assumed): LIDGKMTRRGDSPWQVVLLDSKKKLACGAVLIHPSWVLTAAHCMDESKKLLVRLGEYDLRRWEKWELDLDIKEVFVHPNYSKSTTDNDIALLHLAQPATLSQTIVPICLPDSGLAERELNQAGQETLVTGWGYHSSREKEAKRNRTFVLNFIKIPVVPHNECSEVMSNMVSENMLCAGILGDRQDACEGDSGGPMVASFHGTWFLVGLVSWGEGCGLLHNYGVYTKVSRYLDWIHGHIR
T3 sequence (P04070 43-197 partner limits assumed): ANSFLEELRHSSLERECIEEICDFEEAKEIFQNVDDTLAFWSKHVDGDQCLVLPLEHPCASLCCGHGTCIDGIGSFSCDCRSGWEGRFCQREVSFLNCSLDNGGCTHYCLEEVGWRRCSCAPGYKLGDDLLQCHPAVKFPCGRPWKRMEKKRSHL
Description: as §1, §3
(§4) Dissociation constants were calculated as described herein.

[4] = target: T4, Human plasmin (h plasmin) (Homo sapiens, UniProt P00747); experiment: Inhibition of human plasmin (reference enzyme); conditions: Chromozym PL substrate
T4 construct: purchased Calbiochem
T4 sequence (P00747 581-810 limits assumed): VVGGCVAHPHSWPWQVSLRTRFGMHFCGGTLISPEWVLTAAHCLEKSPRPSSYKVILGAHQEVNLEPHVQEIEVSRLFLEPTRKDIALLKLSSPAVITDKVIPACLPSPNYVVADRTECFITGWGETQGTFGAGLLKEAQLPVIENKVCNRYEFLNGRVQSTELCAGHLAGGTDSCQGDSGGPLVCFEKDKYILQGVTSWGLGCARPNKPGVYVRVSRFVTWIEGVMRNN
T4 sequence (P00747 97-580 partner limits assumed): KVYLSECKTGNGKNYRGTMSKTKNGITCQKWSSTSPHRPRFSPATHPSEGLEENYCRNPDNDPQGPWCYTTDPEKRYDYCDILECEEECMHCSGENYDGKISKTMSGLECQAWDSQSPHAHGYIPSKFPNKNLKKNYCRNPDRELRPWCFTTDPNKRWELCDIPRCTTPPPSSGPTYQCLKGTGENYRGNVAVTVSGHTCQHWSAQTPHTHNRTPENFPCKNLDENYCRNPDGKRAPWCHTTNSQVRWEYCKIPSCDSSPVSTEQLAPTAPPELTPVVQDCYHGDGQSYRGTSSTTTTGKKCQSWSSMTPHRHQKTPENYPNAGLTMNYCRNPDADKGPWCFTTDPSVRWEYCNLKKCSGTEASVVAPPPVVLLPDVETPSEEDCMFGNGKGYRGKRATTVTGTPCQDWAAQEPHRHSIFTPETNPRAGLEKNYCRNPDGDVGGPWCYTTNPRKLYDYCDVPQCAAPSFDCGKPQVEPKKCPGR
Description: as §1, §3, §4

[5] = target: T5, Human plasma kallikrein (h PK) (Homo sapiens, UniProt P03952); experiment: Inhibition of human plasma kallikrein (reference enzyme); conditions: S2302 substrate
T5 construct: purchased Enzyme Research Laboratories
T5 sequence (P03952 391-638 limits assumed): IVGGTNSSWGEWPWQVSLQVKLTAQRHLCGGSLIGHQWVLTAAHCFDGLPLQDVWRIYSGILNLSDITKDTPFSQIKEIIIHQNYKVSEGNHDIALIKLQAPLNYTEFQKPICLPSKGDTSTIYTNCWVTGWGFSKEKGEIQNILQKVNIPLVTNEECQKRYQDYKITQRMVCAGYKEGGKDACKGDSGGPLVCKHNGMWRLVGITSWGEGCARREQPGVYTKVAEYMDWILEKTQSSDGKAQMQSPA
T5 sequence (P03952 20-390 partner limits assumed): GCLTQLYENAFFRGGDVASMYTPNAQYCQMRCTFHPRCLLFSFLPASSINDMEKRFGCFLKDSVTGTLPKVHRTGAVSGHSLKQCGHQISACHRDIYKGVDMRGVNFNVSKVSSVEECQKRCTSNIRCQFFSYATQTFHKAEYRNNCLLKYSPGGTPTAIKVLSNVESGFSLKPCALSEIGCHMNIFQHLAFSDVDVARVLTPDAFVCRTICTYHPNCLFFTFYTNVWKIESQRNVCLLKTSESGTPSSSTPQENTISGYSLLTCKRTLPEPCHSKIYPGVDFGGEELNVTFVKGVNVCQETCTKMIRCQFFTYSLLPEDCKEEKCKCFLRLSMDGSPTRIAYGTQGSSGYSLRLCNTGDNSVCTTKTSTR
Description: as §1, §3, §4

[6] = target: T6, Human tissue-type plasminogen activator (h t-PA) (Homo sapiens, UniProt P00750); experiment: Inhibition of human tissue-type plasminogen activator (reference enzyme)
T6 construct: purchased Boehringer Ingelheim Actilyse
T6 sequence (P00750 36-562): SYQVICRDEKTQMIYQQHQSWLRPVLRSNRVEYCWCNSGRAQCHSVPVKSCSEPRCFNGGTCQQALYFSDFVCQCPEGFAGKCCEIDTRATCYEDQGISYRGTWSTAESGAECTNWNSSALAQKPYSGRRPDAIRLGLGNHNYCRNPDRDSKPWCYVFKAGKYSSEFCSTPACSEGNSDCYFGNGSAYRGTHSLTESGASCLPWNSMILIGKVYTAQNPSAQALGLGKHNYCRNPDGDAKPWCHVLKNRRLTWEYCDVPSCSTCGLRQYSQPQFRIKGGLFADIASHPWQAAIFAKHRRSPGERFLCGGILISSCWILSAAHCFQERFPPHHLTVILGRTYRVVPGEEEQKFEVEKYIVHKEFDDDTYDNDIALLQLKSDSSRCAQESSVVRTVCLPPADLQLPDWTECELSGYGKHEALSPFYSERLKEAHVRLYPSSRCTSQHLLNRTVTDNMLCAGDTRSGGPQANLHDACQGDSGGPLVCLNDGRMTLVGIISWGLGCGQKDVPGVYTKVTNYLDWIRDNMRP
Description: The equilibrium rates were used to calculate the inhibitor/enzyme dissociation constant (Ki values) by parameter fitting in accordance with the rate equation for competitive inhibition using GraFit (version 4 from Erithacus).
as §4

[7] = target: T7, Human urokinase type plasminogen activator (h u-PA) (Homo sapiens, UniProt P00749); experiment: Inhibition of human urokinase type plasminogen activator (reference enzyme); conditions: H-Glu-Gly-Arg-pNA substrate
T7 construct: purchased MEDAC GmbH Urokinase HS medac
Description: as §1, §3, §4

[8] = target: T8, Subcomponent "s" of Human Complement Component 1 (h C1s) (Homo sapiens, UniProt P09871); experiment: Inhibition of human C1s (reference enzyme); conditions: S-2314 substrate; read-out: Ki h Cls
T8 construct: purchased Calbiochem
T8 sequence (P09871 438-688 limits assumed): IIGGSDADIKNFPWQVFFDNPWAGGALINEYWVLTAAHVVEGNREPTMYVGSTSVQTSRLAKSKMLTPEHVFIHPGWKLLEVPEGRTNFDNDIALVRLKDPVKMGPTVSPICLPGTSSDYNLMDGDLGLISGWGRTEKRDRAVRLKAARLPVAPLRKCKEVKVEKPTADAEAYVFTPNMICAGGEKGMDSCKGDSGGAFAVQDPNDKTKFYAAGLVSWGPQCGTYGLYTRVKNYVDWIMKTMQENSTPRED
T8 sequence (P09871 16-437 partner limits assumed): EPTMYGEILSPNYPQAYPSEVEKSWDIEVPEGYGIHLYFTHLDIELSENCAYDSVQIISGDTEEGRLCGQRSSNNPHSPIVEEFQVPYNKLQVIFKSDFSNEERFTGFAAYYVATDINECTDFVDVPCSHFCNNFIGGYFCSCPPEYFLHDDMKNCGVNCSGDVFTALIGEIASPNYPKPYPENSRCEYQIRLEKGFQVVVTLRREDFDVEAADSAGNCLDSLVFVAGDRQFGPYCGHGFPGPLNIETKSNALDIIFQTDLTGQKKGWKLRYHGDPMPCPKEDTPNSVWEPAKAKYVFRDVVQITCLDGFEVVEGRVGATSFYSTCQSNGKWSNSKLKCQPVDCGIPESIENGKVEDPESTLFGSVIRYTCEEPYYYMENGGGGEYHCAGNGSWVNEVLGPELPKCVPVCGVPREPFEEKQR
Description: as §1, §3, §4

[9] = target: T9, Subcomponent "r" of Human Complement Component 1 (h C1r) (Homo sapiens, UniProt P00736); experiment: Inhibition of human C1r (reference enzyme); conditions: S-2314 substrate; read-out: Ki h Clr
T9 construct: purchased Calbiochem
T9 sequence (P00736 464-705 limits assumed): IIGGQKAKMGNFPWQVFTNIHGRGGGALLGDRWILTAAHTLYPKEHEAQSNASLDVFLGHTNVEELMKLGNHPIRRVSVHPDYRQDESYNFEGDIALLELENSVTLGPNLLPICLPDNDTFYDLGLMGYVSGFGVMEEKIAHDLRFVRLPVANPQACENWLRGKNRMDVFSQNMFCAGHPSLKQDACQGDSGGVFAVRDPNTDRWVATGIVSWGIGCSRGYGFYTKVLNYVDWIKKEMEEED
T9 sequence (P00736 18-463 partner limits assumed): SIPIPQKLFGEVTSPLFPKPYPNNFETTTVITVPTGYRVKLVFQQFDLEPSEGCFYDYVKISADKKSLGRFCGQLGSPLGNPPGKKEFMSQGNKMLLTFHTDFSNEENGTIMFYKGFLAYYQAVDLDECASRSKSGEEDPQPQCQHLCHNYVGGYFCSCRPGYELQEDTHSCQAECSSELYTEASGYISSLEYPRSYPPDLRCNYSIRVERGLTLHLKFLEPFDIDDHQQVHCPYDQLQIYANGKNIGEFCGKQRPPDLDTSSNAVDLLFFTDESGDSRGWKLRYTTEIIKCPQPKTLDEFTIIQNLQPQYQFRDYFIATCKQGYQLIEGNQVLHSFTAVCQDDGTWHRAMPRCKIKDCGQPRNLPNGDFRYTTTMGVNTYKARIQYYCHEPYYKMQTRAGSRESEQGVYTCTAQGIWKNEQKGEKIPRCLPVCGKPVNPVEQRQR
Description: as §1, §3, §4

[10] = target: T10, Human urinary kallikrein (h uKK) (Homo sapiens, UniProt P06870); experiment: Inhibition of human urinary kallikrein (reference enzyme); conditions: S-2266 substrate
T10 construct: purchased Lee Biosolutions
T10 sequence (P06870 25-262): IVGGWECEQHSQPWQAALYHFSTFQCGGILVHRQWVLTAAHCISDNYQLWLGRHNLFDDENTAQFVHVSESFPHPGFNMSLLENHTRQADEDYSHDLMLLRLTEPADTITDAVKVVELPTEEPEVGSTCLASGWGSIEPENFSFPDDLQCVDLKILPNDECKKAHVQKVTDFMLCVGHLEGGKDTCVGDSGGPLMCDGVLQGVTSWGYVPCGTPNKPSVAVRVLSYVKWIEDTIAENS
Description: as §1, §3, §4

[11] = Pefachrome tPA substrate, read-out: Ki h t-PA

Compound	Ki [1] [µM]	Ki [2] [nM]	Ki [3] [µM]	Ki [4] [µM]	Ki [5] [µM]	Ki [6, 11] [µM]	Ki [7] [µM]	Ki [8] [µM]	Ki [9] [µM]	Ki [10] [µM]	Ki [6] [µM]
NCc1ccc(Cl)cc1CNC(=O)[C@@H]1CCCN1C(=O)[C@@H](CCC(=O)N1CCOCC1)NS(=O)(=O)Cc1ccccc1 [Compound 2.1, Bzls-D-Glu(morpholino)-L-Pro-Amb(2-AMe-5-Cl)×1 TFA]	0.00043	1.1	> 100	> 28	1.86	> 20	> 40	> 80	> 200	> 60	–
CC(=O)N1CCC(N(C)C(=O)C[C@@H](NS(=O)(=O)Cc2ccccc2)C(=O)N2CCC[C@H]2C(=O)NCc2cc(Cl)ccc2CN)CC1 [Compound 2.2]	0.0031	23	> 90	> 10	4.46	> 100	> 50	> 100	> 50	> 10	–
CN(C(=O)C[C@@H](NS(=O)(=O)Cc1ccccc1)C(=O)N1CCC[C@H]1C(=O)NCc1cc(Cl)ccc1CN)C1CCNCC1 [Compound 2.3]	0.003	23	> 10	> 100	5.31	–	> 100	> 20	> 100	> 50	> 50
CN(C(=O)C[C@@H](NS(=O)(=O)Cc1ccccc1)C(=O)N1CCC[C@H]1C(=O)NCc1cc(Cl)ccc1CN)C1CCOCC1 [Compound 2.4]	0.00056	1.3	> 10	> 20	0.262	> 100	> 40	> 25	> 10	> 50	–
NCc1ccc(Cl)cc1CNC(=O)[C@@H]1C[C@@H](N)CN1C(=O)[C@@H](CC(=O)N1CCNCC1)NS(=O)(=O)Cc1ccccc1 [Compound 2.5]	0.018	2.8	> 20	> 10	0.639	9.27	> 100	> 20	> 100	> 100	–
NCc1ccc(Cl)cc1CNC(=O)[C@@H]1C[C@H](N)CN1C(=O)[C@@H](CC(=O)N1CCCCC1)NS(=O)(=O)Cc1ccccc1 [Compound 2.6]	0.00018	0.049	> 100	8.75	0.335	5.05	> 30	> 20	> 20	> 50	–
NCc1ccc(Cl)cc1CNC(=O)[C@@H]1C[C@@H](N)CN1C(=O)[C@@H](CC(=O)N1CCCCC1)NS(=O)(=O)Cc1ccccc1 [Compound 2.7]	0.00057	0.18	> 50	11.9	0.322	15.3	> 50	> 30	> 20	> 50	–
NCc1ccc(Cl)cc1CNC(=O)[C@@H]1CCCN1C(=O)[C@@H](CC(=O)N1CCCC1)NS(=O)(=O)Cc1ccccc1 [Compound 2.8]	0.00021	0.13	> 40	> 20	0.337	> 10	> 80	> 50	> 100	> 100	–
CC(=O)N1CCC(N(C)C(=O)CC[C@@H](NS(=O)(=O)Cc2ccccc2)C(=O)N2CCC[C@H]2C(=O)NCc2cc(Cl)ccc2CN)CC1 [Compound 2.28]	0.00057	36	> 50	5.56	–	> 100	> 20	> 20	> 100	> 100	–
NCc1ccc(Cl)cc1CNC(=O)[C@@H]1CCCN1C(=O)[C@@H](CCC(=O)O)NS(=O)(=O)Cc1ccccc1 [Compound 2.29]	0.0033	93	> 25	> 15	> 20	> 20	> 100	> 50	> 10	–	–
NCc1ccc(Cl)cc1CNC(=O)[C@@H]1CCCN1C(=O)[C@@H](CC(=O)N1CCOCC1)NS(=O)(=O)Cc1ccccc1 [Compound 2.36]	0.00034	0.38	> 100	> 12	0.565	18	> 40	> 100	> 30	–	–
NCc1ccc(Cl)cc1CNC(=O)[C@@H]1CCCN1C(=O)[C@@H](CC(=O)N1CCSCC1)NS(=O)(=O)Cc1ccccc1 [Compound 2.37]	0.00049	0.54	> 40	6	0.413	19	> 20	> 80	> 200	–	–
NCc1ccc(Cl)cc1CNC(=O)[C@@H]1CCCN1C(=O)[C@@H](CC(=O)N1CC[S+]([O-])CC1)NS(=O)(=O)Cc1ccccc1 [Compound 2.38]	0.0078	5.5	> 50	–	0.614	> 20	> 60	> 80	> 200	–	–
NCc1ccc(Cl)cc1CNC(=O)[C@@H]1CCCN1C(=O)[C@@H](CC(=O)N1CCS(=O)(=O)CC1)NS(=O)(=O)Cc1ccccc1 [Compound 2.39]	0.0186	15.4	> 0.5	–	–	–	–	–	–	–	–
CC(=O)N1CCN(C(=O)C[C@@H](NS(=O)(=O)Cc2ccccc2)C(=O)N2CCC[C@H]2C(=O)NCc2cc(Cl)ccc2CN)CC1 [Compound 2.40]	0.0063	2.4	> 100	9	0.478	> 20	> 50	> 80	> 50	–	–
NCc1ccc(Cl)cc1CNC(=O)[C@@H]1CCCN1C(=O)[C@@H](CC(=O)Nc1cc[n+]([O-])cc1)NS(=O)(=O)Cc1ccccc1 [Compound 2.48, Bzls-D-Asp(1-oxido-4-amino-pyridine)-L-Pro-Amb(2-AMe-5-Cl)]	0.0025	17	> 10	–	0.8	26.8	> 100	> 20	> 100	> 100	–
